The subject of data set [1] is genetically-alcoholic rats (UChB strain). As to the kind of experiment: Anti-alcoholism activity in genetically-alcoholic rats (consumption of 10% v/v alcohol). It is filed as in vivo, rat. Conditions: for Reduction percentage in the consumption of alcohol (10% v/v), treat.: first 6 h after starting the treatment, vs reference period; for Reduction percentage in the consumption of alcohol (10% v/v), post-treat.: first 6 h after having stopped a 3-day treatment. An excerpt:
As an animal model of alcoholic humans, adult Wistar rats of both sexes, belonging to the UChB strain were used. This strain of rats is the result of a long selection at the University of Chile, and rats belonging to it are known to be volunteer consumers of 10% (v/v) aqueous alcohol (cf. J. Mardones and N. Segovia-Riquelme, “Thirty two years of selection of rats by ethanol preference”: UChA and UChB strains”, Neurobehav. Toxicol. and Teratol. 1983, vol. 5, pp. 171–178). Thus, the rats used in these experiments can be considered genetically alcoholic.
Rats were kept in individual cages at 22° C., with alternative 12 h periods of light and darkness. Besides unlimited access to food, they had ad libitum access to water and 10% (v/v) aqueous alcohol. All experiments were double-blind, and results were analyzed using common statistical methods. As changes in alcohol consumption might be influenced by the eagerness of food and/or water intake, both the consumption of food and of water were measured and analyzed. However, experimental changes in the consumptions of both food and water were not significant. In each experiment the following three periods of time were considered:
a) A reference period, consisting of the three days previous to treatment. The measured consumption values were used as reference for comparison purposes.
b) A treatment period, consisting of the three days during which aqueous solutions of the tested compounds (obtained from SIGMA) were intra-gastrically administered, always at the same time of the day. Polyamines were administered as aqueous solutions of their corresponding fully-neutralized hydrochlorides, at concentration of 100 mg of the free-amine per 100 ml of water, when doses of 2 mg of amine per kg of rat; and at concentration of 1000 mg/100 ml, When doses of 20 mg/kg. Dansyl derivatives of polyamines were administered as aqueous suspensions of 100 mg of derivative per 100 ml of water, when doses of 4 mg of free-amine per kg of rat.
c) A post-treatment period, consisting of the three days immediate after the treatment period, during which measurement were taken in order to establish the duration of the effect and the reversibility of the changes.
Table 1 summarizes the average results from nine experiments, each one carried out with a set of 8 rats, where several compounds at different doses were used, and measurements of alcohol consumption were done at 6 h after the beginning of the treatment period, and at 6 h after the beginning of the post-treatment period. Figures in the table are differences in 10% (v/v) ethanol consumption between a given consumption during the reference period and the corresponding consumption during the treatment (or post-treatment) period, expressed a percentage of the consumption during the reference period (i.e. divided by this and multiplied by 100). As indicated by the figures, during treatment a significant reduction occurred in all cases; and during post-treatment a significant reduction occurred in all cases but two (those marked “ns”=non significant). Results in the table also indicate that there is a dose-effect relationship in the reduction of alcohol consumption during the treatment period.

Data set [2] can be described thus: Assessment of the disulfiram-like adverse effect (blood acetaldehyde after ethanol injection). The format is in vivo, rat. Particulars: Wistar rats, single 2 mg/kg p.o. 1 h before ethanol, mean ± SEM. As for the experimental part: Blood samples were taken from the tail of the rat at different times after the injection of the ethanol solution. […] The animals of the disulfiram group received two doses of 300 mg p.o. of disulfiram per kg of rat, 23 h and 17 h before the administration of ethanol. The high concentration of acetaldehyde detected in these groups was expected. […] The animals of the other four groups received a single dose p.o. of 2 mg of the corresponding compound (in the form of 10 mg/100 ml aqueous solutions, which was of the hydrochlorides in the case of polyamines) per kg of rat, 1 h before the administration of ethanol. Figures in the table are mean values (±SEM) of acetaldehyde concentration in blood at the indicated times. It is observed that values of the groups corresponding to the four tested compounds were only slightly above the control ones, but far below the corresponding values of the disulfiram group.

Setting [3] is: dose 20 mg/kg, ns = non significant.
Where [4] appears, read: dose 2 mg/kg, ns = non significant.

On to `NCCCN` [1,3-propanediamine], for which the “Reduction percentage in the consumption of alcohol (10% v/v), treat.” value (“Reduction percentage … (10% v/v), treat.” below) in data set [1] (dose 20 mg/kg intra-gastric) came out at 27%. For the same molecule, the “Reduction percentage in the consumption of alcohol (10% v/v), post-treat.” value (“Reduction percentage … (10% v/v), post-treat.” for short) in data set [1] (setting [3]) stood at 12%.

On to `NCCCCN` [putrescine], for which the results for the “Reduction percentage … (10% v/v), treat.” value in data set [1] (dose 2 mg/kg intra-gastric) and in data set [1] (dose 20 mg/kg intra-gastric) were 13% and 28%, respectively. Further, the entries for the “Reduction percentage … (10% v/v), post-treat.” value in data set [1] (setting [4]) and in data set [1] (setting [3]) were “ns” and 13%, respectively.

Take `NCCCCNCCCN` [spermidine]: the “Reduction percentage … (10% v/v), treat.” value in data set [1] (dose 2 mg/kg intra-gastric) is on record as 25%; in data set [1] (dose 20 mg/kg intra-gastric), 29%. The “Reduction percentage … (10% v/v), post-treat.” value in data set [1] (setting [4]) was 17%; in data set [1] (setting [3]), “ns”.

For the molecule `NCCCNCCCCNCCCN` [spermine], the figures for the “Reduction percentage … (10% v/v), treat.” value in data set [1] (dose 2 mg/kg intra-gastric) and in data set [1] (dose 20 mg/kg intra-gastric) were 27% and 42%, respectively. Also, the “Reduction percentage … (10% v/v), post-treat.” value in data set [1] (setting [4]) is listed as 29%; in data set [1] (setting [3]), 12%.

dansyl putrescine: the “Reduction percentage … (10% v/v), treat.” value in data set [1] (dose 4 mg/kg intra-gastric) stood at 23%. For the same molecule, in data set [1] (dose 4 mg/kg), the “Reduction percentage … (10% v/v), post-treat.” value was found to be 22%.

As for dansyl spermidine, the “Reduction percentage … (10% v/v), treat.” value in data set [1] (dose 4 mg/kg intra-gastric) amounted to 29%. For the same molecule, the “Reduction percentage … (10% v/v), post-treat.” value in data set [1] (dose 4 mg/kg) stood at 19%. Also, the “Acetaldehyde concentration in blood” value in data set [2] (0.5 h after i.p. 2.76 g/kg ethanol) is on record as 150 ± 5 μg/100 ml; in data set [2] (2 h after i.p. 2.76 g/kg ethanol), 40 ± 9 μg/100 ml.

The values are drawn from US7232846B2, “Amines as anti-alcoholism agents” (priority 2001, dated 2007).
